From the supplement of paper PMC5770543
± gives the standard deviation.

Key:
[1] = system: Toxoplasma gondii RH tachyzoites; test: % growth inhibition vs DMSO (48 h luciferase); higher = more inhibition; details: 10 µM
[2] = system: Plasmodium falciparum 3D7; test: % inhibition of schizont-to-ring transition vs DMSO; higher = more inhibition
Procedure, shortened: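 Tightly synchronised P. falciparum schizonts (about 40–42 hours post-invasion, 1% parasitemia, 2.5% hematocrit, AlbuMAX-supplemented RPMI) were exposed to compound at 1, 3 or 10 µM, with vehicle and positive controls. Cells were glutaraldehyde-fixed, Triton-permeabilised, stained with Hoechst 33342 and counted by flow cytometry (at least 100,000 events). Schizont-to-ring transition inhibition is new ring formation relative to vehicle controls, averaged over three experiments.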

[3] = system: Toxoplasma gondii RH tachyzoites; test: plaque count per well; higher = less inhibition; extreme values may be limits of the assay; details: 10 µM; 8-10 days
Protocol: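 T. gondii RH tachyzoites expressing firefly luciferase were grown in HFF monolayers for 48 h with compound. % growth inhibition at 10 µM and EC50 (2-fold dilutions from 10 µM) were read by luminescence relative to 1% DMSO; EC50 listed as 10 (not determined, <80% inhibition) is left out. Plaque assays: 50 tachyzoites per well with 10 µM compound for 8-10 days, giving plaque count and area by crystal violet/ImageJ. Egress: median time to egress after 1 µM A23187 ionophore following 24 h of 10 µM compound (DMSO ~1.8 min; >10 = no egress within 10 min).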

[4] = system: Plasmodium falciparum 3D7; test: EC50 growth inhibition (60 h, SYBR Green); details: stage: ring-stage start
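Throughout, for % growth inhibition vs DMSO (48 h luciferase): tested in triplicate wells of 96-well plates on confluent HFF monolayers, with 1% DMSO wells as negative control in four replicates.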

SMILES	% growth inhibition [1] [%]	% inhibition of schizont-to-ring transition ([2]; 1 µM) [%]	% inhibition of schizont-to-ring transition ([2]; 3 µM) [%]	% inhibition of schizont-to-ring transition ([2]; 10 µM) [%]	plaque count per well [3]	EC50 growth inhibition [4] [nM]
Cc1cccc(Nc2nc(N)c3ccccc3n2)c1	< 0	3.41	36.1	54.2	0	669
Cc1ccc(Nc2nc(NCCO)c3ccccc3n2)cc1C	< 0	54.1	66.8	69.1	0	194
C[n+]1c2ccccc2nc2ccc(NCCO)cc21	< 0	33.2	48.3	65.4	0	96.4
OC(CNC1CCCCC1)Cn1c2ccccc2c2ccccc21 (centres undefined)	< 0	48.9	69	75.3	21	985
COc1ccccc1N1CCN(C(CNS(=O)(=O)c2ccc(Cl)cc2)c2cccnc2)CC1 (centres undefined)	4.77 ± 8.3	16	20.5	49.3	34	2260
O=C(O)C1Cc2c([nH]c3ccccc23)C(c2ccc(Cl)cc2Cl)N1 (centres undefined)	< 0	8.54	18.6	26.4	32	1300
CCCc1cc(O)c2c3c(c(=O)oc2c1)CN(C)CC3	< 0	25.2	60.2	68	33	364
CCOC(=O)C1(Cc2ccccc2)CCN(Cc2cccc(OC)c2O)CC1	1.84 ± 3.2	25.8	34	55.9	0	1330
COc1ccc(-c2nonc2NC(=O)c2cccc(C)c2)cc1OC	3.28 ± 4.1	32.8	59	67.1	28	628
COc1ccc(N2CCN(C(CNC(=O)CC(C)(C)C)c3ccc4c(c3)OCO4)CC2)cc1 (centres undefined)	< 0	8.37	17.9	32.6	24	1680
COc1ccc2nc(C)cc(Nc3cccc(O)c3)c2c1	19.7 ± 6.3	42.3	59.4	64	0	845
OCCNc1nc(Nc2ccc(Cl)c(Cl)c2)nc2ccccc12	< 0	51	66.3	68.9	0	180
CCN(CC)CCNc1ncnc2c1[nH]c1ccc(Br)cc12	7.24 ± 12	41.8	49.9	55.8	26	225
COc1ccc(N2CCN(C(CNC(=O)C3CCCCC3)c3ccc4c(c3)OCO4)CC2)cc1 (centres undefined)	< 0	41.5	44.2	49.2	23	6240
COc1ccc(CNC2CCN(c3ccc(NC(=O)c4cccc(Cl)c4)cc3)CC2)cc1OC	3.03 ± 5.2	< 0	28.3	38.6	0	492
COc1ccc(-c2cc3c(SCC(=O)Nc4cc(C(F)(F)F)ccc4Cl)nccn3n2)cc1	< 0	35.7	37.5	49.5	28	259
Cn1c(=O)c2cc(C(=O)NCCCN3CCCCCC3)sc2c2ccccc21	5.71 ± 9.9	42.6	49.5	53.2	25	833
COc1ccc(Br)cc1C1Nc2ccc3ccccc3c2C2=C1C(=O)CC(c1ccccc1)C2 (centres undefined)	12.1 ± 11	< 0	4.06	29.3	0	387
CCn1c(CN2CCN(Cc3ccccc3)CC2)nc2cc(NC(=O)c3cccs3)ccc21	< 0	40.6	47.9	56	0	615
O=[N+]([O-])c1ccc(C=NNc2nc3ccccc3[nH]2)cc1	< 0	29	43.8	49	33	663
COc1ccc(C(=O)Nc2nonc2-c2ccc(OC)c(OC)c2)cc1Cl	1.09 ± 1.9	35.7	67.3	69.4	20	420
COc1cccc(C(=O)NC(c2ccc(C)cc2)c2cc(Cl)c3cccnc3c2O)c1 (centres undefined)	< 0	30.4	42.1	49.9	0	7640
COc1ccc(NC(=O)C2c3ccccc3C(=O)N(CC(C)C)C2c2cccs2)cc1 (centres undefined)	< 0	78.1	78	76.6	27	46.9
CCCCc1c(CCC)c(=N)c2ccccc2n1C	< 0	7.81	11.2	39.6	23	3930
